Assay results taken from patent US8273775B2, “Non-steroidal brassinosteroid mimetic” (priority 2006, dated 2012).

Tested on: gene expression in Col-0 seedling shoots
Assay: Microarray analysis (ATH1 Affymetrix) after BL or abrasin treatment
Format: in vivo, Arabidopsis
Conditions: 120 min
Description: FIG. 14: Clustering of gene expression profiles by QT-clust analysis. Clusters illustrating the major patterns of the data sets. Points: BIK-30: 30 μM abrasin 30 min; BL-30: 1 μM brassinolide 30 min; DMSO-30: control DMSO 30 min; BIK-120: 30 μM abrasin 120 min; BL-120: 1 μM brassinolide 120 min; DMSO-120: control DMSO 120 min.
Col-0 seeds were germinated vertically on ½ MS medium for 7 days under 16 h light/8 h dark cycles. The seedlings were overlaid with liquid ½ MS medium containing 1 μM brassinolide (BL, Fuji Chemical Industries, Ltd., Toyama, Japan), 30 μM abrasin (BIK, ChemBridge Corporation) and DMSO and treated for 30 and 120 min. The shoot parts were collected for RNA isolation. All sampling points were performed in three independent experiments. RNA was extracted using RNeasy kit (Qiagene). […] total RNA per array was used to hybridise the ATH1 Affymetrix Arabidopsis arrays according to standard procedure. The overrepresentation analyses were performed using BiNGO software (Maere et al., 2005).
We performed a microarray analysis using the Arabidopsis whole genome chip (Affymetix) to determine whether abrasin activated the expression of BR-inducible genes at transcriptional level. Wild-type Col-0 seedlings were exposed to 1 μM BL, 30 μM ABRASIN and DMSO (mock-treatment) for two time points (30 min and 120 min) and the shoot parts were collected for RNA isolation. The analysis of the variance of the normalized gene expression data took in account the variability parameters affecting the expression level: type of hormone treatment, duration of treatment and the interaction between these two.

CC(C)[C@H](C)[C@@H](O)[C@H](O)[C@@H](C)[C@H]1CC[C@H]2[C@@H]3COC(=O)[C@H]4C[C@H](O)[C@H](O)C[C@]4(C)[C@H]3CC[C@]12C [BL, brassinolide, reference compound]
Fold-change AT4G16780 homeobox-leucine zipper protein 4 (HAT4)/HD-ZIP protein: 0.51
Fold-change AT4G17250 expressed protein: 1.82
Fold-change AT4G17460 homeobox-leucine zipper protein 1 (HAT1)/HD-ZIP protein 1: 0.19
Fold-change AT4G21510 F-box family protein: 2.09
Fold-change AT4G23030 MATE efflux protein-related: 2.20
Fold-change AT4G23070 rhomboid family protein: 2.03
Fold-change AT4G23810 WRKY family transcription factor: 0.55
Fold-change AT4G24160 hydrolase, alpha/beta fold family protein: 1.14
Fold-change AT4G25620 hydroxyproline-rich glycoprotein family protein: 0.86
Fold-change AT4G25780 pathogenesis-related protein: 0.26
Fold-change AT4G27970 C4-dicarboxylate transporter/malic acid transport family protein: 1.28
Fold-change AT4G28240 wound-responsive protein-related: 0.41
Fold-change AT4G28490 leucine-rich repeat transmembrane protein kinase, putative: 0.78
Fold-change AT4G28703 expressed protein: 0.89
Fold-change AT4G28780 GDSL-motif lipase/hydrolase family protein: 2.29
Fold-change AT4G29070 expressed protein: 0.74
Fold-change AT4G30080 transcriptional factor B3 family protein: 0.49
Fold-change AT4G31020 expressed protein: 0.67
Fold-change AT4G32280 auxin-responsive AUX/IAA family protein (IAA29): 0.22
Fold-change AT4G33050 calmodulin-binding family protein: 0.57
Fold-change AT4G33700 CBS domain-containing protein: 0.51
Fold-change AT4G34610 homeodomain-containing protein: 0.37
Fold-change AT4G36110 auxin-responsive protein: 7.86
Fold-change AT4G36780 brassinosteroid signalling positive regulator-related: 0.09
Fold-change AT4G37240 expressed protein: 2.33
Fold-change AT4G37290 expressed protein: 0.40
Fold-change AT4G37590 phototropic-responsive NPH3 family protein: 0.53
Fold-change AT4G38840 auxin-responsive protein (SAUR14): 2.53
Fold-change AT4G38850 auxin-responsive protein (SAUR-AC1): 3.03
Fold-change AT4G38860 auxin-responsive protein (SAUR16): 3.40
Fold-change AT4G39400 brassinosteroid insensitive 1 (BRI1): 0.57
Fold-change AT5G02020 expressed protein: 0.96
Fold-change AT5G05690 cytochrome P450 90A1 (CYP90A1) (CYP90) (CPD): 0.41
Fold-change AT5G07690 myb family transcription factor (MYB29): 0.40
Fold-change AT5G08130 basic helix-loop-helix (bHLH) family protein (BIM2): 0.42
Fold-change AT5G12050 expressed protein: 0.34
Fold-change AT5G13180 no apical meristem (NAM) family protein: 0.50
Fold-change AT5G13740 sugar transporter family protein: 0.36
Fold-change AT5G14730 expressed protein: 0.55
Fold-change AT5G16200 50S ribosomal protein-related: 0.20
Fold-change AT5G16980 NADP-dependent oxidoreductase: 1.26
Fold-change AT5G18750 DNAJ heat shock N-terminal domain-containing protein: 0.56
Fold-change AT5G19200 short-chain dehydrogenase/reductase (SDR) family protein: 2.47
Fold-change AT5G19340 expressed protein: 0.39
Fold-change AT5G24030 C4-dicarboxylate transporter/malic acid transport family protein: 1.90
Fold-change AT5G24660 expressed protein: 2.26
Fold-change AT5G25240 expressed protein: 3.69
Fold-change AT5G25930 leucine-rich repeat family protein: 0.63
Fold-change AT5G27350 sugar-porter family protein 1 (SFP1): 2.04
Fold-change AT5G27670 histone H2A: 0.50
Fold-change AT5G38310 expressed protein: 0.93
Fold-change AT5G38990; AT5G39000 [AT5G38990, protein kinase family protein: 0.74
Fold-change AT5G39050 transferase family protein: 0.62
Fold-change AT5G39610 no apical meristem (NAM) family protein: 0.22
Fold-change AT5G39970 expressed protein: 0.99
Fold-change AT5G42830 transferase family protein: 0.62
Fold-change AT5G47370 homeobox-leucine zipper protein 2 (HAT2): 0.87
Fold-change AT5G48070 putative xyloglucan endotransglycosylase/hydrolase: 1.24
Fold-change AT5G48540 33 kDa secretory protein-related: 0.55
Fold-change AT5G51550 phosphate-responsive 1 family protein: 0.37
Fold-change AT5G54490 calcium-binding EF-hand protein, putative: 1.75
Fold-change AT5G54860 integral membrane transporter family protein: 0.82
Fold-change AT5G55970 zinc finger (C3HC4-type RING finger) family protein: 1.82
Fold-change AT5G56980 expressed protein: 0.20
Fold-change AT5G57190 phosphatidylserine decarboxylase: 0.60
Fold-change AT5G57780 expressed protein: 0.12
Fold-change AT5G59080 expressed protein: 0.53
Fold-change AT5G60200 Dof-type zinc finger domain-containing protein: 1.67
Fold-change AT5G60270 lectin protein kinase family protein: 1.82
Fold-change AT5G60630 expressed protein: 1.15
Fold-change AT5G61600 encodes a member of the ERF (ethylene response factor): 2.06
Fold-change AT5G62360 invertase/pectin methylesterase inhibitor family protein: 0.45
Fold-change AT5G65310 homeobox-leucine zipper protein 5 (HB-5)/HD-ZIP transcription factor 5: 0.27
Fold-change AT5G66420 expressed protein: 0.43
Fold-change AT5G66590 allergen V5/Tpx-1-related family protein: 0.58
Fold-change AT5G67450 zinc finger (C2H2 type) protein 1 (AZF1): 0.89
Fold-change of gene AT4G16140 (proline-rich family protein) (245479_at, Cluster 6): 0.75
Fold-change of gene AT4G15260 (UDP-glucoronosyl/UDP-glucosyl transferase family protein) (245543_at, Cluster 7): 0.67
Fold-change of gene AT5G09440 (phosphate-responsive protein, putative) (245885_at, Cluster 5): 0.13
Fold-change of gene AT1G77380 (amino acid carrier) (246389_at, Cluster 10): 0.40
Fold-change of gene AT5G15740 (expressed protein) (246516_at, Cluster 5): 0.69
Fold-change of gene AT5G65300 (expressed protein) (247177_at, Cluster 5): 0.36
Fold-change of gene AT5G64890 (expressed protein) (247205_at, Cluster 10): 0.85
Fold-change of gene AT5G63790 (no apical meristem (NAM) family protein) (247351_at, Cluster 9): 0.27
Fold-change of gene AT5G62630 (expressed protein) (247444_at, Cluster 7): 1.26
Fold-change of gene AT5G60850 (Dof-type zinc finger domain-containing protein) (247601_at, Cluster 10): 1.10
Fold-change of gene AT5G59510 (expressed protein) (247704_at, Cluster 9): 0.13
Fold-change of gene AT5G58660 (oxidoreductase. 2OG-Fe(II) oxygenase family protein) (247774_at, Cluster 5): 2.85
Fold-change of gene AT5G54120 (expressed protein) (248190_at, Cluster 5): 0.94
Fold-change of gene AT5G54130 (calcium-binding EF hand family protein) (248191_at, Cluster 5): 0.88
Fold-change of gene AT5G52900 (expressed protein) (248282_at, Cluster 6): 0.50
Fold-change of gene AT5G49100 (expressed protein) (248646_at, Cluster 9): 0.38
Fold-change of gene AT5G18060 (auxin-responsive protein) (250012_x_at, Cluster 6): 0.28
Fold-change of gene AT5G09800 (U-box domain-containing protein) (250493_at, Cluster 9): 0.30
Fold-change of gene AT5G08565 (expressed protein) (250537_at, Cluster 8): 0.78
Fold-change of gene AT5G03670 (expressed protein) (250907_at, Cluster 5): 0.37
Fold-change of gene AT5G01740 (expressed protein) (251072_at, Cluster 5): 0.47
Fold-change of gene AT3G63380 (calcium-transporting ATPase) (251176_at, Cluster 10): 0.10
Fold-change of gene AT3G60690 (auxin-responsive family protein) (251342_at, Cluster 9): 0.27
Fold-change of gene AT3G45610 (Dof-type zinc finger domain) (252586_at, Cluster 10): 1.05
Fold-change of gene AT3G44610 (protein kinase family protein) (252646_at, Cluster 5): 1.03
Fold-change of gene AT4G34760 (auxin-responsive family protein) (253255_at, Cluster 6): 0.62
Fold-change of gene AT4G34138 (UDP-glucoronosyl/UDP-glucosyl transferase family protein) (253281_at, Cluster 7): 1.74
Fold-change of gene AT4G31910 (transferase family protein) (253483_at, Cluster 5): 0.78
Fold-change of gene AT4G30410 (expressed protein) (253617_at, Cluster 5): 0.45
Fold-change of gene AT4G30450 (glycine-rich protein) (253629_at, Cluster 5): 0.59
Fold-change of gene AT4G26200 (1-aminocyclopropane-1-carboxylate synthase) (253999_at, Cluster 9): 0.11
Fold-change of gene AT4G03400 (auxin-responsive GH3 family protein) (255403_at, Cluster 6): 0.48
Fold-change of gene AT4G02700 (sulfate transporter) (255443_at, Cluster 7): 1.20
Fold-change of gene AT1G22190 (AP2 domain-containing transcription factor) (255926_at, Cluster 8): 0.89
Fold-change of gene AT1G66140 (zinc finger (C2H2 type) family protein) (256528_at, Cluster 6): 0.46
Fold-change of gene AT3G25655 (expressed protein) (256762_at, Cluster 8): 0.12
Fold-change of gene AT3G21420 (oxidoreductase, 2OG-Fe(II) oxygenase family protein) (256818_at, Cluster 7): 1.29
Fold-change of gene AT3G18280 (protease inhibitor/seed storage/lipid transfer protein) (257066_at, Cluster 5): 0.92
Fold-change of gene AT1G29440 (auxin-responsive family protein) (257506_at, Cluster 6): 0.34
Fold-change of gene AT3G29200 (chorismate mutase, chloroplast (CM1)) (257746_at, Cluster 5): 0.66
Fold-change of gene AT1G13260 (DNA-binding protein RAV1 (RAV1)) (259364_at, Cluster 8): 0.67
Fold-change of gene AT1G29500 (auxin-responsive protein) (259773_at, Cluster 6): 0.39
Fold-change of gene AT1G29510 (auxin-responsive protein) (259783_at, Cluster 6): 0.36
Fold-change of gene AT1G29450 (auxin-responsive protein) (259784_at, Cluster 6): 0.37
Fold-change of gene AT1G29460 (auxin-responsive protein) (259787_at, Cluster 6): 0.28
Fold-change of gene AT1G76690; AT1G76680 ([AT1G76690, 12-oxophytodienoate reductase (OPR2)) (259875_s_at, Cluster 7): 0.89
Fold-change of gene AT1G76620 (expressed protein) (259985_at, Cluster 8): 0.37
Fold-change of gene AT1G63720 (expressed protein) (260243_at, Cluster 10): 0.17
Fold-change of gene AT1G48100 (glycoside hydrolase family 28 protein) (260727_at, Cluster 8): 1.16
Fold-change of gene AT1G12200 (flavin-containing monooxygenase family protein) (261023_at, Cluster 7): 1.40
Fold-change of gene AT1G12845 (expressed protein) (261203_at, Cluster 6): 0.47
Fold-change of gene AT1G15550 (gibberellin 3-beta-dioxygenase) (261768_at, Cluster 6): 0.52
Fold-change of gene AT1G80840 (WRKY family transcription factor) (261892_at, Cluster 9): 0.05
Fold-change of gene AT1G80080 (leucine-rich repeat family protein) (262040_at, Cluster 6): 0.39
Fold-change of gene AT1G80130 (expressed protein) (262050_at, Cluster 8): 0.36
Fold-change of gene AT1G21680 (expressed protein) (262505_at, Cluster 10): 1.29
Fold-change of gene AT1G34245 (expressed protein) (262543_at, Cluster 6): 0.67
Fold-change of gene AT1G78460 (SOUL heme-binding family protein) (263126_at, Cluster 7): 1.49
Fold-change of gene AT1G78820; AT1G78830 ([AT1G78820, curculin-like (mannose-binding) lectin family protein) (264279_s_at, Cluster 7): 0.86
Fold-change of gene AT2G42380 (bZIP transcription factor family protein) (265877_at, Cluster 6): 0.39
Fold-change of gene AT2G45080 (cyclin family protein) (266124_at, Cluster 8): 0.27
